In ChEMBL document CHEMBL1201862, “PubChem BioAssay data set” (2004):
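A five-concentration, 48-hour dose response in 96-well plates underlies each endpoint, interpolated linearly between surrounding concentrations. Here, GI50 denotes the concentration required for 50% inhibition of growth.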 The source made the active and inactive calls. No stated cut-off is given here; in the data, active = GI50 up to about 1.1 µM and inactive = higher.

Experiments:
Experiment in all cases: DTP human tumour cell line panel, 48 h
[1] = tested on: DMS-273
[2] = tested on: LXFL 529
[3] = tested on: SNB-78
[4] = tested on: HOP-18
[5] = tested on: RXF 631
[6] = tested on: XF498
[7] = tested on: DLD-1
[8] = tested on: DMS-114
[9] = tested on: M19-MEL

Measured: GI50

Cc1ccccc1-c1cc(=O)c2cc(C)c(C)c(C(=O)O)c2o1
inactive: [1] > 100 µM | [2] > 100 µM | [3] > 100 µM | [4] > 100 µM | [5] > 100 µM | [6] 71.1 µM | [7] > 100 µM | [8] > 100 µM | [9] > 100 µM
